Bounds are passed on as bounds.

As a reminder, the IC50 is the midpoint of a concentration-inhibition curve.

T1 sequence (Q00987 1-188): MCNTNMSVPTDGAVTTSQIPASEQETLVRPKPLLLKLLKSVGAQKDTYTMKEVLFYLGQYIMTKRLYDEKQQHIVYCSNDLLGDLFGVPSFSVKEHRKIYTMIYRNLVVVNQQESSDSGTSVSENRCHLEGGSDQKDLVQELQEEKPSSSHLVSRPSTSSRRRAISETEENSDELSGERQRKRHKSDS

The assay addresses T1, human MDM2 (GST-hMDM2 1-188), interaction with biotinylated-p53 (1-83) (Homo sapiens, UniProt Q00987).
T1 construct: Amino acid residues 1-188 of human MDM2 were expressed; made in house; host or cells: Escherichia coli
As to the kind of experiment: improved HTRF assay (HTRF2 assay), inhibition of HDM2-p53 interaction. Format: binding. As to conditions: 0.2 nM GST-hMDM2, 0.5 nM biotinylated-p53, 100 mM KF. In outline: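 Time-resolved fluorescence (HTRF) read after >4 h equilibration with SA-XLent/anti-GST cryptate/KF detection reagents. Reaction: compound plus GST-hMDM2 for 20 min at room temperature, then E. coli-expressed biotinylated p53 residues 1-83 for 60 min, 2% DMSO final. Inhibition expressed versus nutlin-3.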
(TR-FRET usually uses a lanthanide donor and a delayed reading to cut background.)
On to `O=C(O)C[C@H]1O[C@H](c2cccc(Cl)c2)[C@@H](c2ccc(Cl)cc2)N([C@H](CS(=O)(=O)N2CCOCC2)C2CC2)C1=O` (single isomer, unassigned) [Example 303, 2-((2R,5R,6R)-6-(3-Chlorophenyl)-5-(4-chlorophenyl)-4-((S)-1-cyclopropyl-2-(morpholinosulfonyl)ethyl)-3-oxomorpholin-2-yl)acetic acid or 2-((2S,5R,6R)-6-(3-chlorophenyl)-5-(4-chlorophenyl)-4-((S)-1-cyclopropyl-2-(morpholinosulfonyl)ethyl)-3-oxomorpholin-2-yl)acetic acid], for which the half-inhibitory concentration (IC50) stood at 1 nM. Consider `C[C@@H]1CCCN1S(=O)(=O)C[C@H](C1CC1)N1C(=O)[C@@H](CC(=O)O)O[C@H](c2cccc(Cl)c2)[C@H]1c1ccc(Cl)cc1` (single isomer, unassigned) [Example 304, 2-((2R,5R,6R)-6-(3-Chlorophenyl)-5-(4-chlorophenyl)-4-((S)-1-cyclopropyl-2-(((R)-2-methylpyrrolidin-1-yl)sulfonyl)ethyl)-3-oxomorpholin-2-yl)acetic acid or 2-((2S,5R,6R)-6-(3-chlorophenyl)-5-(4-chlorophenyl)-4-((S)-1-cyclopropyl-2-(((R)-2-methylpyrrolidin-1-yl)sulfonyl)ethyl)-3-oxomorpholin-2-yl)acetic acid], for which the 50% inhibitory concentration (IC50) is below 1 nM.

`C[C@@H]1CCCN1S(=O)(=O)C[C@H](C1CC1)N1C(=O)[C@@H](CC(=O)O)O[C@H](c2cccc(Cl)c2)[C@H]1c1ccc(Cl)cc1` (single isomer, unassigned) [Example 305, 2-((2R,5R,6R)-6-(3-Chlorophenyl)-5-(4-chlorophenyl)-4-((S)-1-cyclopropyl-2-(((R)-2-methylpyrrolidin-1-yl)sulfonyl)ethyl)-3-oxomorpholin-2-yl)acetic acid or 2-((2S,5R,6R)-6-(3-chlorophenyl)-5-(4-chlorophenyl)-4-((S)-1-cyclopropyl-2-(((R)-2-methylpyrrolidin-1-yl)sulfonyl)ethyl)-3-oxomorpholin-2-yl)acetic acid] showed an IC50 below 1 nM. The value for `CC1(C)CCCN1S(=O)(=O)C[C@H](C1CC1)N1C(=O)[C@@H](CC(=O)O)O[C@H](c2cccc(Cl)c2)[C@H]1c1ccc(Cl)cc1` (single isomer, unassigned) [Example 306, 2-((2R,5R,6R)-6-(3-Chlorophenyl)-5-(4-chlorophenyl)-4-((S)-1-cyclopropyl-2-((2,2-dimethylpyrrolidin-1-yl)sulfonyl)ethyl)-3-oxomorpholin-2-yl)acetic acid or 2-((2R,5R,6R)-6-(3-chlorophenyl)-5-(4-chlorophenyl)-4-((S)-1-cyclopropyl-2-((2,2-dimethylpyrrolidin-1-yl)sulfonyl)ethyl)-3-oxomorpholin-2-yl)acetic acid] was below 1 nM. As for `CC1(C)CCCN1S(=O)(=O)C[C@H](C1CC1)N1C(=O)[C@@H](CC(=O)O)O[C@H](c2cccc(Cl)c2)[C@H]1c1ccc(Cl)cc1` (single isomer, unassigned) [Example 307, 2-((2R,5R,6R)-6-(3-Chlorophenyl)-5-(4-chlorophenyl)-4-((S)-1-cyclopropyl-2-((2,2-dimethylpyrrolidin-1-yl)sulfonyl)ethyl)-3-oxomorpholin-2-yl)acetic acid or 2-((2R,5R,6R)-6-(3-chlorophenyl)-5-(4-chlorophenyl)-4-((S)-1-cyclopropyl-2-((2,2-dimethylpyrrolidin-1-yl)sulfonyl)ethyl)-3-oxomorpholin-2-yl)acetic acid], the half-inhibitory concentration (IC50) was below 1 nM. Under `CC(C)(C)S(=O)(=O)C[C@H](C1CC1)N1C(=O)[C@@H](CC(=O)O)O[C@H](c2cccc(Cl)c2)[C@H]1c1ccc(Cl)c(F)c1` (single isomer, unassigned) [Example 308, 2-((2R,5R,6R)-4-((S)-2-(tert-Butylsulfonyl)-1-cyclopropylethyl)-5-(4-chloro-3-fluorophenyl)-6-(3-chlorophenyl)-3-oxomorpholin-2-yl)acetic acid or 2-((2S,5R,6R)-4-((S)-2-(tert-butylsulfonyl)-1-cyclopropylethyl)-5-(4-chloro-3-fluorophenyl)-6-(3-chlorophenyl)-3-oxomorpholin-2-yl)acetic acid] stands below 1 nM; under `CC(C)(C)S(=O)(=O)C[C@H](C1CC1)N1C(=O)[C@@H](CC(=O)O)O[C@H](c2cccc(Cl)c2)[C@H]1c1ccc(Cl)c(F)c1` (single isomer, unassigned) [Example 309, 2-((2R,5R,6R)-4-((S)-2-(tert-Butylsulfonyl)-1-cyclopropylethyl)-5-(4-chloro-3-fluorophenyl)-6-(3-chlorophenyl)-3-oxomorpholin-2-yl)acetic acid or 2-((2S,5R,6R)-4-((S)-2-(tert-butylsulfonyl)-1-cyclopropylethyl)-5-(4-chloro-3-fluorophenyl)-6-(3-chlorophenyl)-3-oxomorpholin-2-yl)acetic acid], 1 nM; under `CC(C)[C@@H](CS(=O)(=O)C(C)(C)C)N1C(=O)[C@@H](CC(=O)O)O[C@H](c2cccc(Cl)c2)[C@H]1c1ccc(Cl)c(F)c1` (single isomer, unassigned) [Example 310], 1 nM.

The molecule `CC(C)[C@@H](CS(=O)(=O)C(C)(C)C)N1C(=O)[C@@H](CC(=O)O)O[C@H](c2cccc(Cl)c2)[C@H]1c1ccc(Cl)c(F)c1` (single isomer, unassigned) [Example 311] registered a 50% inhibitory concentration (IC50) of 5 nM. In turn, `CC(C)[C@@H](CS(=O)(=O)C(C)(C)C)N1C(=O)[C@@H](CC(=O)O)O[C@H](c2cccc(Cl)c2)[C@H]1c1ccc(Cl)c(F)c1` (single isomer, unassigned) [Example 312] gave a half-maximal inhibitory concentration (IC50) of 279 nM. The value for `CC(C)[C@@H](CS(=O)(=O)C(C)(C)C)N1C(=O)[C@@H](CC(=O)O)O[C@H](c2cccc(Cl)c2)[C@H]1c1ccc(Cl)c(F)c1` (single isomer, unassigned) [Example 313] was 38 nM; that for `O=C(O)C[C@H]1O[C@H](c2cccc(Cl)c2)[C@@H](c2ccc(Cl)c(F)c2)N([C@H](CN(c2ccccc2F)S(=O)(=O)C2CC2)C2CC2)C1=O` (single isomer, unassigned) [Example 314, 2-((2R,5R,6R)-5-(4-Chloro-3-fluorophenyl)-6-(3-chlorophenyl)-4-((S)-1-cyclopropyl-2-(N-(2-fluorophenyl)cyclopropanesulfonamido)ethyl)-3-oxomorpholin-2-yl)acetic acid or 2-((2S,5R,6R)-5-(4-chloro-3-fluorophenyl)-6-(3-chlorophenyl)-4-((S)-1-cyclopropyl-2-(N-(2-fluorophenyl)cyclopropanesulfonamido)ethyl)-3-oxomorpholin-2-yl)acetic acid] was below 1 nM.

Take `O=C(O)C[C@H]1O[C@H](c2cccc(Cl)c2)[C@@H](c2ccc(Cl)c(F)c2)N([C@H](CN(c2ccccc2F)S(=O)(=O)C2CC2)C2CC2)C1=O` (single isomer, unassigned) [Example 315, 2-((2R,5R,6R)-5-(4-Chloro-3-fluorophenyl)-6-(3-chlorophenyl)-4-((S)-1-cyclopropyl-2-(N-(2-fluorophenyl)cyclopropanesulfonamido)ethyl)-3-oxomorpholin-2-yl)acetic acid or 2-((2S,5R,6R)-5-(4-chloro-3-fluorophenyl)-6-(3-chlorophenyl)-4-((S)-1-cyclopropyl-2-(N-(2-fluorophenyl)cyclopropanesulfonamido)ethyl)-3-oxomorpholin-2-yl)acetic acid]: the IC50 is below 1 nM. `CC[C@@H](CS(=O)(=O)C(C)(C)C)N1C(=O)[C@@H](CC(=O)O)O[C@H](c2cccc(Cl)c2)[C@H]1c1ccc(Cl)cc1F` (single isomer, unassigned) [Example 316, 2-((2R,5R,6R)-4-((S)-1-(tert-Butylsulfonyl)butan-2-yl)-5-(4-chloro-2-fluorophenyl)-6-(3-chlorophenyl)-3-oxomorpholin-2-yl)acetic acid or 2-((2S,5R,6R)-4-((S)-1-(tert-butylsulfonyl)butan-2-yl)-5-(4-chloro-2-fluorophenyl)-6-(3-chlorophenyl)-3-oxomorpholin-2-yl)acetic acid] displayed an IC50 of 2 nM. The value for `CC[C@@H](CS(=O)(=O)C(C)(C)C)N1C(=O)[C@@H](CC(=O)O)O[C@H](c2cccc(Cl)c2)[C@H]1c1ccc(Cl)cc1F` (single isomer, unassigned) [Example 317, 2-((2R,5R,6R)-4-((S)-1-(tert-Butylsulfonyl)butan-2-yl)-5-(4-chloro-2-fluorophenyl)-6-(3-chlorophenyl)-3-oxomorpholin-2-yl)acetic acid or 2-((2S,5R,6R)-4-((S)-1-(tert-butylsulfonyl)butan-2-yl)-5-(4-chloro-2-fluorophenyl)-6-(3-chlorophenyl)-3-oxomorpholin-2-yl)acetic acid] was 3 nM; that for `CC(C)(C)S(=O)(=O)C[C@H](C1CC1)N1C(=O)[C@@H](CC(=O)O)O[C@H](c2ccc(Cl)c(Cl)c2)[C@H]1c1ccc(Cl)cc1` (single isomer, unassigned) [Example 318, 2-((2R,5R,6R)-4-((S)-2-(tert-Butylsulfonyl)-1-cyclopropylethyl)-5-(4-chlorophenyl)-6-(3,4-dichlorophenyl)-3-oxomorpholin-2-yl)acetic acid or 2-((2S,5R,6R)-4-((S)-2-(tert-butylsulfonyl)-1-cyclopropylethyl)-5-(4-chlorophenyl)-6-(3,4-dichlorophenyl)-3-oxomorpholin-2-yl)acetic acid] was 8 nM.

These data come from patent US9376425B2, “Heterocyclic compounds as MDM2 inhibitors for the treatment of cancer” (AMGEN INC., priority 2011, dated 2016).
